Measured values: PMC6423129, “Activity and structural analysis of GRL-117C: a novel small molecule CCR5 inhibitor active against R5-tropic HIV-1s” (Scientific Reports, 2019)

Tested on: HIV-1KP-5pc
Test: TZM-bl single-round infection assay, HIV-1KP-5pc
Format: cell-based
Details: Human immunodeficiency virus 1, TZM-bl
Experimental: MAGI-CCR5 cells[18] were maintained in DMEM supplemented with 10% fetal calf serum (FCS: Gemini Bio-Products, West Sacramento, CA), 200 μg/ml G418, 100 μg/ml hygromycin B, and 100 μg/ml zeomycin. The Chinese hamster ovary (CHO) cells expressing CCR5[19] were maintained in Ham’s F-12 medium (GIBCO-BRL, Rockville, MD) supplemented with 10% FCS, 50 U/ml penicillin, and 50 μg/ml streptomycin in the presence of 5 μg/ml blasticidin S hydrochloride. TZM-bl cells were obtained from the NIH AIDS Reagent Program, and were cultured in DMEM with 10% FCS. Peripheral blood mononuclear cells (PBMCs) were isolated from buffy coats of HIV-1 seronegative individuals, and were activated with 10 μg/ml phytohemagglutinin (PHA) prior to use[16]. A laboratory wild-type R5-HIV-1 strain (HIV-1Ba-L)[37] was employed for drug susceptibility assays. AD101 (experimental CCR5 inhibitor) and VVC-resistant HIV clones[7],[8] were provided by Dr. John P. Moore of Cornell University for this study. The clones were propagated with activated PBMCs, and were used for the assays. A clinical HIV-1 strain, HIV-1KP-5pc, and an MVC-resistant isolate, HIV-1KP-5mvcR, were prepared and used for antiviral assays, as previously described[10],[38]. The following reagents (plasmids) for T/F HIV-1 viruses[22],[24] were obtained through the NIH AIDS Reagent Program, Division of AIDS, NIAID, NIH: pCH040.c/2625 (cat# 11740), pCH106.c/2633 (cat# 11743), pTHRO.c/2626 (cat# 11745), and pCH058.c/2960 (cat# 11856), from Dr. John Kappes and Dr. Christina Ochsenbauer.
Antiviral assays using PHA-PBMCs (p24 assay) were conducted as previously reported[16],[38]. In brief, PHA-PBMCs (1 × 10^6/ml) were exposed to 50 TCID50 of HIV-1Ba-L or drug-resistant HIV-1 infectious clones in the presence or absence of various concentrations of drugs; 10-fold serial dilutions were performed in 96-well microculture plates. The amount of p24 antigens produced by the cells was determined on day 7 in the culture via a commercially available ELISA kit (PerkinElmer). The p24 production level in drug-free control cell cultures was used as the reference. […] Antiviral assays using MAGI-CCR5 cells (MAGI assay) were conducted as previously reported[16],[39]. Single-round virus infection assays using TZM-bl cells infected with R5-HIV-1s (HIV-1YU2, HIV-1KP-5pc, and HIV-1KP-5mvcR)[10] were also conducted as previously described.

## C=CCN(C(=O)OCc1ccc([N+](=O)[O-])cc1)C1CC2CCC(C1)N2CCC(C)(CN(C)S(=O)(=O)c1ccccc1)c1ccccc1 (centres unmarked) [GRL-117C]
  IC90: 767 nM
KP-5pc, drug-sensitive clinical strain, TZM-bl assay, mean ± SD
  IC50: 160 ± 30 nM
